Measurements taken from patent US20180136242A1 (Autotelic LLC, priority 2014, published 2018).

B1: 3C6 (antibody, V domains shown)
VH: EVQLQESGPSLVKPSQTLSLTCSVTGDSITSGYWNWIRKFPGNRLEYMGYISYSGSTYYNPSLKSRISITRDTSKNQYYLHLTSVTTEDTATYYCAQGDGAYWGQGTTLTVSS
VL: DVVMTQTPLSLPVSLGDQASISCRSRQSLVHSNGNTYLHWYLQKPGQSPKLLIYKVSNRFSGVPDRFSGSGSGTEFTLEISRVEAEDLGVYFCSQSTHVPPTFGGGTKLEIK
B2: 8A10: anti-taxane IgG2a mouse monoclonal antibody; variable regions SEQ ID NOS: 2 and 4 (antibody, V domains shown)
VL: DIVMTQSQKFMSITLGERVSITCKPSQNVGSAVTWWQQKPGQSPKLLIYSASNRYTGVPDRFTGSGSGTDFTLTISNVQSEDLADYFCQQYSSYPYTFGGGTKLEIKR
VH: EVQLQQSGPELVKPGASVKISCKASGYTFTDSTMNWVKQSHGKSLEWIGEIDPNNGGTNYNQKFKGKATLTVDKSSSTAYMELRSLTSEDSAVYYCARGVWGQGTTLTVSS
modifications: mouse IgG2a constant regions

What was measured:
[1] = test system: 3C6 anti TAXOL IgG2a,k antibody; experiment: Paclitaxel antibody cross-reactivity, IC50 towards taxanes (3C6); type: binding, mouse; settings: antibody 3C6; read-out: IC50 towards taxane, 3C6
Text: (§1) The antibodies of the invention were generated by immunizing mice with either TAXOL® or baccatin conjugated to KLH. The antibodies are summarized as: 3C6 anti TAXOL® IgG2a,k, 3H5 anti-baccatin III IgG1, 8A10 anti-taxane IgG2a. Cross-reactivity profile of 3C6, 3H5, and 8A10 antibodies are shown by their IC50 values towards various taxanes in Table 1.

[2] = test system: 3H5 anti-baccatin III IgG1 antibody; experiment: Paclitaxel antibody cross-reactivity, IC50 towards taxanes (3H5); type: binding, mouse; settings: antibody 3H5; read-out: IC50 towards taxane, 3H5
Text: as §1

[3] = test system: 8A10 anti-taxane IgG2a antibody; experiment: Paclitaxel antibody cross-reactivity, IC50 towards taxanes (8A10); type: binding, mouse; settings: antibody 8A10
Text: as §1

BSA-paclitaxel [4] = biological target: T1, BSA-paclitaxel (Bos taurus, UniProt P02769); experiment: Biacore T-200 SPR, antibody on the chip; type: binding; settings: Biacore T-200, antibody on the chip
BSA-paclitaxel [5] = biological target: T1, BSA-paclitaxel; experiment: Biacore 3000 SPR, antibody on the chip; type: binding; settings: Biacore 3000, antibody on the chip (3C6: single point)
BSA-paclitaxel antigen = BSA-paclitaxel antigen (Bos taurus, UniProt P02769); experiment: Direct binding ELISA of intact IgGs to BSA-paclitaxel antigen (FIG. 4); settings: read-out: apparent Kd
Experimental: FIG. 4 is a graph illustrating direct binding of intact IgGs (8A10 and 3C6) of the invention to a BSA-paclitaxel antigen on an ELISA.
Antibody affinity. 50 μL of BSA-paclitaxel antigen at a concentration of 3.5 μg/mL in 1× PBS was bound to a plate and incubated at 4° C. overnight. The plate was washed four ties with PBS/0.05% Tween 20. The plate was blocked for 2 hours with 1% BSA in PBS/0.05% Tween 20 at room temperature. The plate was washed four ties with PBS/0.05% Tween 20. 50 μL of antibody sample (8A10 and 3C6) was bound (start at 300 nM and titer down by 3s). The plate was washed four times with PBS/0.05% Tween 20. 50 μL of goat anti mIgG horseradish peroxidase (1:5000 dilution) was bound and then 50 μL of substrate solution TMB was added and the color allowed to develop. The reaction was stopped with 50 μL 1M HCl and the optical density was read at 450 nm.

BSA-paclitaxel (BSA-Ag) = BSA-paclitaxel (BSA-Ag) (Bos taurus, UniProt P02769); experiment: Biacore 3000 SPR kinetic analysis, antigen on the chip; type: binding; settings: for Dissociation rate constant (kd) / ka: 25° C.
Experimental: In this example, a method for determining antibody properties is described. The methods were carried out by Precision Antibody, Inc. (Columbia, Md.) using a Biacore Assay.
Binding experiments were performed on a Biacore 3000 instrument (GE, Pittsburgh, Pa.) at 25° C. Approximately 13,000 RU of anti-BSA ab (Life Technologies, A11133, lot 1637270) was directly immobilized on flow cell 2 of CM5 chip by amine coupling (EDC/NHS). 110-120 RU of BSA-paclitaxel (BSA-Ag) was captured. Flow cell 1 was treated the same way but without the ligand and used as a blank surface for reference subtraction. The unoccupied sites were blocked with 1 M ethanol amine. Analytes Ab 1 (8A10) and Ab2 (3C6) were flowed over the chip at variable concentrations. Binding of antigen to the antibodies was monitored in real time to obtain on (ka) and off (kd) rates. The equilibrium constant (KD) was calculated from the observed ka and kd.
Full kinetic analysis was performed using analyte concentrations as indicated with 2-fold serial dilutions. The starting concentration was 200 nM, followed by 100, 50, 25, 12.5, and 0 nM. The 100 nM concentration was run in duplicates to confirm the reproducibility of the assay.
The assay buffer was 10 mM HEPES buffer (pH 7.4), 150 mM NaCl, 3 mM EDTA, 0.05% P20 (polyoxyethylenesorbitan). The regeneration buffer was 10 mM Glycine buffer (pH 2.0). The conjugation buffer was 10 mM sodium acetate buffer (pH 5.0). The flow rate used for capturing the ligand was 1 μL/min. The flow rate for kinetics analysis was 50 μL/min.
Chi square (χ^2) analysis was carried out between the actual sensorgram and the sensorgram generated from the BlAnalysis software to determine the accuracy of the analysis. A χ^2 value within 1-2 is considered significant (accurate) and below 1 is highly significant (highly accurate).

[6] = BSA-Ag (110RU) ligand, full kinetic analysis
[7] = BSA-Ag (110RU) ligand, calculated from ka and kd
[8] = Biacore 3000, antigen on the chip

T1 sequence (P02769 25-607): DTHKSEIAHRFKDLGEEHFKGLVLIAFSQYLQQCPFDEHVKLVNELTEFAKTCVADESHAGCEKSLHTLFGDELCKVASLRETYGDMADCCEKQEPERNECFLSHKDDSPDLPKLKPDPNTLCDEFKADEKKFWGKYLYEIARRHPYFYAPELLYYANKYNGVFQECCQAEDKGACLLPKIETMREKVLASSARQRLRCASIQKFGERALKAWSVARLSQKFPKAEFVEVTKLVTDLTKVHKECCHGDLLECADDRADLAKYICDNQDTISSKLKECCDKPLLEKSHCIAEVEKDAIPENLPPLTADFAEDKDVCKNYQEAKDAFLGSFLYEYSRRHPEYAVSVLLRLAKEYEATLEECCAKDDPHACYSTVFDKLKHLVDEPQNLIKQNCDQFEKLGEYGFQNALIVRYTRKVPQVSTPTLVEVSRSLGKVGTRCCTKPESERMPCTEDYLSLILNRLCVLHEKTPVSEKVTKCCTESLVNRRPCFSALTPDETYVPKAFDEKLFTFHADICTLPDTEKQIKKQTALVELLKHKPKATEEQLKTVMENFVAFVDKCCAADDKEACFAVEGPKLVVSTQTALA
Sequence of BSA-paclitaxel (BSA-Ag) (P02769 25-607): as above
Sequence of BSA-paclitaxel antigen (P02769 25-607): as above

Molecule | IC50 [1] [nM] | IC50 [2] [nM] | IC50 [3] [nM] | further results
CC(=O)O[C@@]12CO[C@@H]1C[C@H](O)[C@@]1(C)C(=O)[C@H](O)C3=C(C)[C@@H](OC(=O)[C@H](O)[C@@H](NC(=O)c4ccccc4)c4ccccc4)C[C@@](O)([C@@H](OC(=O)c4ccccc4)[C@H]21)C3(C)C [10-deacetyltaxol] | 15 | > 333 | 10 | –
CC(=O)OC[C@@]1(O)[C@H]2[C@H](OC(=O)c3ccccc3)[C@]3(O)C[C@H](OC(=O)[C@H](O)[C@@H](NC(=O)c4ccccc4)c4ccccc4)C(C)=C([C@@H](OC(C)=O)C(=O)[C@]2(C)[C@@H](O)C[C@@H]1O)C3(C)C [20-acetoxy-4-deacetyl-5-epi-20,O-secotaxol] | > 310 | > 310 | > 293 | –
CC(=O)O[C@H]1C(=O)[C@@]2(C)[C@H]([C@H](OC(=O)c3ccccc3)[C@]3(O)C[C@H](OC(=O)[C@H](O)[C@@H](NC(=O)c4ccccc4)c4ccccc4)C(C)=C1C3(C)C)[C@]1(OC(C)=O)CO[C@@H]1C[C@@H]2O [7-epi-taxol] | 80 | > 316 | 50 | –
CC(=O)O[C@H]1C(=O)[C@@]2(C)[C@H]([C@H](OC(=O)c3ccc(C(F)(F)F)cc3)[C@]3(O)C[C@H](OC(=O)[C@H](O)[C@@H](NC(=O)c4ccccc4)c4ccccc4)C(C)=C1C3(C)C)[C@]1(OC(C)=O)CO[C@@H]1C[C@@H]2O [2-debenzoyl-2-(p-trifluoromethylbenzoyl)taxol] | > 293 | > 293 | > 293 | –
C/C=C(\C)C(=O)N[C@@H](c1ccccc1)[C@@H](O)C(=O)O[C@H]1C[C@@]2(O)[C@@H](OC(=O)c3ccccc3)[C@@H]3[C@]4(OC(C)=O)CO[C@@H]4C[C@H](O)[C@@]3(C)C(=O)[C@H](OC(C)=O)C(=C1C)C2(C)C [cephalomannine] | 220 | > 325 | 8 | –
CC(=O)O[C@@]12CO[C@@H]1C[C@@H](O)[C@@]1(C)C(=O)[C@H](O)C3=C(C)[C@@H](O)C[C@@](O)([C@@H](OC(=O)c4ccccc4)[C@H]21)C3(C)C [7-epi-10-deacetylbaccatin III] | > 469 | 150 | 27 | –
CC(=O)O[C@@]12CO[C@@H]1C[C@H](O)[C@@]1(C)C(=O)[C@H](O)C3=C(C)[C@@H](OC(=O)[C@H](O)[C@@H](NC(=O)c4ccccc4)c4ccccc4)C[C@@](O)([C@@H](OC(=O)c4ccccc4)[C@H]21)C3(C)C [7-epi-10-deacetyltaxol] | 25 | > 333 | 15 | –
CC(=O)O[C@H]1C(=O)[C@@]2(C)[C@H]([C@H](OC(=O)c3ccccc3)[C@]3(O)C[C@H](OC(=O)[C@H](O)[C@@H](NC(=O)c4ccccc4)c4ccccc4)C(C)=C1C3(C)C)[C@]1(OC(C)=O)CO[C@@H]1C[C@@H]2O [paclitaxel (TAXOL ®), paclitaxel] | 10 | > 316 | 7 | –
CC(=O)O[C@H]1C(=O)[C@@]2(C)[C@H]([C@H](OC(=O)c3ccccc3)[C@]3(O)C[C@H](O)C(C)=C1C3(C)C)[C@]1(OC(C)=O)CO[C@@H]1C[C@@H]2O [baccatin III] | > 511 | 10 | 12 | –
CC(=O)O[C@H]1C(=O)[C@]2(C)[C@H](O)C[C@H]3OC[C@@]3(OC(C)=O)[C@H]2[C@H](OC(=O)c2ccccc2)[C@]2(O)C[C@H](O)C(C)=C1C2(C)C [baccatin V] | > 460 | 10 | 10 | –
CC(=O)O[C@@]12CO[C@@H]1C[C@H](O[C@@H]1OC[C@@H](O)[C@H](O)[C@H]1O)[C@@]1(C)C(=O)[C@H](O)C3=C(C)[C@@H](OC(=O)[C@H](O)[C@@H](NC(=O)c4ccccc4)c4ccccc4)C[C@@](O)([C@@H](OC(=O)c4ccccc4)[C@H]21)C3(C)C [7-xylosyl-10-deacetyltaxol] | 30 | > 286 | 17 | –
CC(=O)O[C@@]12CO[C@@H]1C[C@H](O)[C@@]1(C)C(=O)[C@H](O)C3=C(C)[C@@H](O)C[C@@](O)([C@@H](OC(=O)c4ccccc4)[C@H]21)C3(C)C [10-deacetylbaccatin III] | > 551 | 230 | 21 | –
B1 | – | – | – | Kd (BSA-paclitaxel [4]): 12 nM; Off-rate (BSA-paclitaxel [4]): 2.2 × 10^−4; On-rate (BSA-paclitaxel [4]): 1.8 × 10^4; Rmax (BSA-paclitaxel [4]): 112; Kd (BSA-paclitaxel [5]): 10 nM; Off-rate (BSA-paclitaxel [5]): 2.9 × 10^−4; On-rate (BSA-paclitaxel [5]): 2.8 × 10^4; Rmax (BSA-paclitaxel [5]): 54.4; Kd (BSA-paclitaxel antigen): ~10 nM; Dissociation rate constant (kd) (BSA-paclitaxel (BSA-Ag); [6]): 0.000967 s⁻¹; ka (BSA-paclitaxel (BSA-Ag); [6]): 20500 M⁻¹ s⁻¹; Kd (BSA-paclitaxel (BSA-Ag); [7]): 47.2 nM; KA (BSA-paclitaxel (BSA-Ag); [6]): 2.12e+07 M⁻¹; Rmax (BSA-paclitaxel (BSA-Ag); [6]): 15.6; Kd (BSA-paclitaxel (BSA-Ag); [8]): 47 nM; Off-rate (BSA-paclitaxel (BSA-Ag); [8]): 9.7 × 10^−4; On-rate (BSA-paclitaxel (BSA-Ag); [8]): 2.1 × 10^4; Rmax (BSA-paclitaxel (BSA-Ag); [8]): 15.6
B2 | – | – | – | Kd (BSA-paclitaxel [4]): 3.6 nM; Off-rate (BSA-paclitaxel [4]): 8.7 × 10^−4; On-rate (BSA-paclitaxel [4]): 2.4 × 10^5; Rmax (BSA-paclitaxel [4]): 8.6; Kd (BSA-paclitaxel [5]): 1.3 nM; Off-rate (BSA-paclitaxel [5]): 2.0 × 10^−3; On-rate (BSA-paclitaxel [5]): 1.6 × 10^6; Rmax (BSA-paclitaxel [5]): 3.6; Kd (BSA-paclitaxel antigen): ~10 nM; Dissociation rate constant (kd) (BSA-paclitaxel (BSA-Ag); [6]): 0.000304 s⁻¹; ka (BSA-paclitaxel (BSA-Ag); [6]): 470000 M⁻¹ s⁻¹; Kd (BSA-paclitaxel (BSA-Ag); [7]): 0.645 nM; KA (BSA-paclitaxel (BSA-Ag); [6]): 1.55e+09 M⁻¹; Rmax (BSA-paclitaxel (BSA-Ag); [6]): 4.01; Kd (BSA-paclitaxel (BSA-Ag); [8]): 0.65 nM; Off-rate (BSA-paclitaxel (BSA-Ag); [8]): 3.0 × 10^−4; On-rate (BSA-paclitaxel (BSA-Ag); [8]): 4.7 × 10^5; Rmax (BSA-paclitaxel (BSA-Ag); [8]): 4.0
